Source: the supplement of paper PMC10307832

Experiments:
Test in all cases: relative viability (nuclei count vs DMSO), 5 days (fraction); higher = more cells survive
Vorinostat + Linsitinib = compound: O=C(CCCCCCC(=O)Nc1ccccc1)NO [Vorinostat] + C[C@]1(O)C[C@@H](c2nc(-c3ccc4ccc(-c5ccccc5)nc4c3)c3c(N)nccn32)C1 [Linsitinib] (partner 1 µM)
Method in brief: (§1)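 Relative viability was taken as the ratio of nuclei in treated wells to nuclei in vehicle wells. Lung cancer cell lines in 1536-well plates received compounds by pin tool one day after seeding, either one drug alone or a fixed anchor-drug dose plus five library-drug doses (not always all listed) in √10 steps. Nuclei were counted on 4× images after 5 days of treatment, and values are medians of duplicate plates.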

Vorinostat + Navitoclax = compound: O=C(CCCCCCC(=O)Nc1ccccc1)NO [Vorinostat] + CC1(C)CCC(c2ccc(Cl)cc2)=C(CN2CCN(c3ccc(C(=O)NS(=O)(=O)c4ccc(N[C@H](CCN5CCOCC5)CSc5ccccc5)c(S(=O)(=O)C(F)(F)F)c4)cc3)CC2)C1 [Navitoclax] (partner 0.5 µM)
Method in brief: as §1

Vorinostat + Lapatinib = compound: O=C(CCCCCCC(=O)Nc1ccccc1)NO [Vorinostat] + CS(=O)(=O)CCNCc1ccc(-c2ccc3ncnc(Nc4ccc(OCc5cccc(F)c5)c(Cl)c4)c3c2)o1 [Lapatinib] (partner 2 µM)
Method in brief: as §1

Vorinostat + Decitabine = compound: O=C(CCCCCCC(=O)Nc1ccccc1)NO [Vorinostat] + Nc1ncn([C@H]2C[C@H](O)[C@@H](CO)O2)c(=O)n1 [Decitabine] (partner 2 µM)
Method in brief: as §1

| Cell Line | relative viability (Vorinostat + Linsitinib; first compound 0.253 µM) | relative viability (Vorinostat + Linsitinib; first compound 0.8 µM) | relative viability (Vorinostat + Linsitinib; first compound 2.53 µM) | relative viability (Vorinostat + Linsitinib; first compound 8 µM) | relative viability (Vorinostat + Navitoclax; first compound 0.253 µM) | relative viability (Vorinostat + Navitoclax; first compound 0.8 µM) | relative viability (Vorinostat + Navitoclax; first compound 2.53 µM) | relative viability (Vorinostat + Navitoclax; first compound 8 µM) | relative viability (Vorinostat + Lapatinib; first compound 0.253 µM) | relative viability (Vorinostat + Lapatinib; first compound 0.8 µM) | relative viability (Vorinostat + Lapatinib; first compound 2.53 µM) | relative viability (Vorinostat + Lapatinib; first compound 8 µM) | relative viability (Vorinostat + Decitabine; first compound 0.253 µM) | relative viability (Vorinostat + Decitabine; first compound 0.8 µM) | relative viability (Vorinostat + Decitabine; first compound 2.53 µM) | relative viability (Vorinostat + Decitabine; first compound 8 µM) |
| --- | --- | --- | --- | --- | --- | --- | --- | --- | --- | --- | --- | --- | --- | --- | --- | --- |
| LC-2-ad | 0.868 | 0.606 | 0.13 | 0.136 | 0.539 | 0.277 | 0.102 | 0.113 | 0.924 | 0.67 | 0.253 | 0.0672 | 0.839 | 0.69 | 0.469 | 0.227 |
| NCI-H520 | 1.15 | 0.841 | 0.293 | 0.12 | 1.17 | 0.845 | 0.256 | 0.162 | 1.12 | 0.668 | 0.319 | 0.116 | 0.581 | 0.474 | 0.297 | 0.157 |
| NCI-H2126 | 0.581 | 0.68 | 0.456 | 0.224 | 0.834 | 0.756 | 0.489 | 0.211 | 0.75 | 0.733 | 0.562 | 0.22 | 0.58 | 0.533 | 0.332 | 0.19 |
| NCI-H1437 | 1.19 | 0.789 | 0.138 | 0.0938 | 1.11 | 0.908 | 0.166 | 0.118 | 0.846 | 0.476 | 0.153 | 0.0924 | 0.55 | 0.454 | 0.285 | 0.235 |
| PC-3 [JPC-3] | 0.886 | 0.938 | 0.625 | 0.281 | 0.655 | 0.676 | 0.398 | 0.247 | 0.456 | 0.441 | 0.326 | 0.252 | 0.807 | 0.71 | 0.429 | 0.381 |
| NCI-H1944 | 1.21 | 0.948 | 0.697 | 0.207 | 1.07 | 0.945 | 0.731 | 0.226 | 0.77 | 0.572 | 0.43 | 0.236 | 0.397 | 0.364 | 0.259 | 0.141 |
| NCI-H1915 | 1.12 | 1.03 | 0.587 | 0.113 | 0.792 | 0.762 | 0.479 | 0.0857 | 1.03 | 0.962 | 0.673 | 0.0743 | 0.278 | 0.254 | 0.174 | 0.106 |
| BEN | 0.985 | 0.543 | 0.156 | 0.0466 | 0.0469 | 0.0584 | 0.0602 | 0.0509 | 0.819 | 0.379 | 0.151 | 0.0751 | 0.838 | 0.55 | 0.236 | 0.143 |
| NCI-H2085 | 0.818 | 0.804 | 0.621 | 0.243 | 1.18 | 1.02 | 0.643 | 0.269 | 0.676 | 0.608 | 0.494 | 0.278 | 0.569 | 0.554 | 0.379 | 0.281 |
| NCI-H2347 | 0.992 | 0.982 | 0.766 | 0.306 | 0.933 | 0.714 | 0.238 | 0.16 | 0.988 | 1.04 | 0.766 | 0.341 | 0.644 | 0.62 | 0.508 | 0.24 |
| EMC-BAC-2 | 0.977 | 0.866 | 0.47 | 0.134 | 1.21 | 1.13 | 0.692 | 0.131 | 1.04 | 0.871 | 0.405 | 0.149 | 0.958 | 0.716 | 0.373 | 0.168 |
| A-427 | 1.11 | 1.08 | 0.875 | 0.17 | 1.06 | 0.906 | 0.812 | 0.171 | 1.1 | 1.05 | 0.929 | 0.23 | 0.551 | 0.557 | 0.434 | 0.166 |
| NCI-H2009 | 1.27 | 1.07 | 0.707 | 0.177 | 1.16 | 1.16 | 0.722 | 0.141 | 1.06 | 0.503 | 0.329 | 0.133 | 0.416 | 0.354 | 0.273 | 0.0862 |
| NCI-H647 | 1.24 | 0.959 | 0.294 | 0.0525 | 1.14 | 0.759 | 0.149 | 0.0271 | 1.49 | 0.947 | 0.163 | 0.0687 | 0.356 | 0.286 | 0.137 | 0.0323 |
| EKVX | 1.14 | 1.04 | 0.515 | 0.141 | 0.955 | 1.13 | 0.588 | 0.143 | 0.217 | 0.209 | 0.173 | 0.107 | 0.31 | 0.324 | 0.194 | 0.133 |
| LCLC-97TM1 | – | 0.167 | 0.144 | 0.115 | – | 0.298 | 0.289 | 0.0998 | – | 0.784 | 1.49 | 0.115 | 0.236 | 0.264 | 0.129 | 0.0801 |
| NCI-H2405 | 1.13 | 1.09 | 0.245 | 0.0821 | 1.13 | 0.771 | 0.0779 | 0.0557 | 1.36 | 1.18 | 0.306 | 0.0576 | 0.794 | 0.741 | 0.478 | 0.121 |
